# Assay results taken from paper PMC12077208 (mBio, 2025).
# Key:
# [1] = tested on: NTF2L domain of G3BP1; experiment: SEC-MALS of peptide–NTF2L complexes; assay type: physicochemical, human; conditions: ~2 mg/mL in PBS pH 7.4, Superdex 200 Increase 10/300 GL; for M.W., molecular weight of the peptide–NTF2L complex: 0.5 mL/min, value given in figure
# [2] = target: T1, NTF2L domain of G3BP1 (residues 1–138) (Homo sapiens, UniProt Q13283); experiment: Isothermal titration calorimetry (ITC) of peptides with NTF2L; assay type: binding; conditions: for n, molar ratio: 20°C
# T1 construct: 6xHis tag with TEV protease cleavage site (N, cleaved yes); made in house; host or cells: Escherichia coli BL21 (DE3)
# [3] = tested on: NTF2L domain of G3BP1; experiment: Size-exclusion chromatography (SEC) of NTF2L incubated with peptide: high-order oligomer formation; assay type: binding, human; conditions: peptide mixed with NTF2L, incubated at 4°C overnight, Superdex 200 Increase 10/300 GL
# [4] = tested on: endogenous G3BP1; experiment: Co-immunoprecipitation with endogenous G3BP1 in HEK293T cells; assay type: cell-based; conditions: Co-IP, Flag magnetic beads, HEK293T cells lysed 36 h after transfection (3xFlag-mCherry constructs)
# Protocol: HEK293T cells were seeded into a six-well cell culture plate and then transfected with the recombinant plasmids using TransIntro PEI Transfection Reagent (TransGen Biotech, FT401-01). Thirty-six hours after transfection, the cells were lysed with cell lysis buffer (Beyotime, P0013J) supplemented with proteinase inhibitor phenylmethylsulfonyl fluoride (Solarbio, P8340). Cell lysates were then centrifuged, and the supernatants were immunoprecipitated with Flag magnetic beads (LABLEAD, PFM025). Beads were washed three times with washing buffer (50 mM Tris-HCl, 500 mM NaCl, 0.1% Triton X-100, 1 mM EDTA, pH 7.5). Cell lysates or immunoprecipitants were analyzed with immunoblotting.
# The proteins were then transferred to polyvinylidene fluoride membranes. Membranes were blocked for 4 h with 5% non-fat dry milk solution in Tris-buffered saline containing 0.1% Tween-20 (TBST) and then incubated with primary antibodies mouse anti-G3BP1 (Santa Cruz, sc-365338), mouse anti-Flag (Proteintech, 66008-4-Ig), and rabbit anti-β-actin (Proteintech, 81115-1-RR) overnight at 4°C. The membranes were washed with TBST and then incubated with the corresponding secondary antibodies. Proteins were visualized by SuperKine West Femto Maximum Sensitivity Substrate according to the manufacturer’s instruction (Abbkine, BMU102).
# [5] = tested on: lung cancer cell; conditions: through targeting G3BP1; cited from earlier work
# [6] = tested on: SARS-CoV-2; conditions: cited from earlier work
# T1 sequence (Q13283 1-138): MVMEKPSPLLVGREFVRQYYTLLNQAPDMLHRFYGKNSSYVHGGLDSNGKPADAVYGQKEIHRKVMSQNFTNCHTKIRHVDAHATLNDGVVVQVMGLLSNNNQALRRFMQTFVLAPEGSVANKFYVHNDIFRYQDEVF
structure (smiles),measurement,setting,value
CC[C@H](C)[C@H](NC(=O)[C@H](CCC(=O)O)NC(=O)CNC(=O)[C@H](CC(=O)O)NC(=O)[C@H](CC(N)=O)NC(=O)[C@H](Cc1ccccc1)NC(=O)[C@H](CC(=O)O)NC(=O)CNC(=O)[C@H](Cc1ccccc1)NC(=O)[C@@H](NC(=O)[C@@H](NC(=O)[C@@H]1CCCN1C(=O)[C@H](Cc1ccccc1)NC(=O)[C@@H](NC(=O)[C@H](CCC(=O)O)NC(=O)[C@H](CO)NC(=O)CNC(=O)[C@H](CC(C)C)NC(=O)[C@@H]1CCCN1C(=O)CN)[C@@H](C)O)[C@@H](C)CC)[C@@H](C)O)C(=O)N[C@@H](CCC(=O)O)C(=O)N[C@@H](CO)C(=O)N[C@@H](CC(C)C)C(=O)N[C@@H](CO)C(=O)N[C@@H](CO)C(=O)N[C@@H](CCC(=O)O)C(=O)N[C@@H](CC(C)C)C(=O)N[C@@H](CC(C)C)C(=O)N[C@H](C(=O)N[C@@H](Cc1ccccc1)C(=O)NCC(=O)N[C@@H](CC(=O)O)C(=O)N[C@@H](Cc1ccccc1)C(=O)N[C@@H](CC(C)C)C(=O)N1CCC[C@H]1C(=O)NCC(=O)N[C@@H](C)C(=O)N[C@H](C(=O)N[C@@H](C)C(=O)N[C@@H](CC(=O)O)C(=O)N[C@@H](CC(C)C)C(=O)N[C@H](C(=O)N[C@@H](CC(=O)O)C(=O)N[C@@H](CO)C(=O)N[C@@H](CC(=O)O)C(=O)N[C@@H](Cc1c[nH]c2ccccc12)C(=O)N[C@@H](CO)C(=O)N[C@H](C(=O)N[C@@H](Cc1c[nH]cn1)C(=O)N[C@@H](Cc1c[nH]cn1)C(=O)N[C@@H](Cc1c[nH]cn1)C(=O)N[C@@H](Cc1c[nH]cn1)C(=O)N[C@@H](Cc1c[nH]cn1)C(=O)N[C@@H](Cc1c[nH]cn1)C(=O)O)[C@@H](C)O)[C@@H](C)O)C(C)C)[C@@H](C)O [CHIKV-43 mut],"M.W., molecular weight of the peptide–NTF2L complex",[1],58.7 ± 0.42 kDa
same,"n, molar ratio","[2]; HEPES buffer pH 7.5, 200 µM peptide injected into 40 µM NTF2L",0.6 ± 0.02
same,fold reduction of binding affinity with NTF2L,[2]; compared to that of CHIKV-43 with NTF2L,~ 15 fold
CC[C@H](C)[C@H](NC(=O)[C@H](CCC(=O)O)NC(=O)CNC(=O)[C@H](CC(=O)O)NC(=O)[C@H](CC(N)=O)NC(=O)[C@H](Cc1ccccc1)NC(=O)[C@H](CC(=O)O)NC(=O)CNC(=O)[C@H](Cc1ccccc1)NC(=O)[C@@H](NC(=O)[C@@H](NC(=O)[C@@H]1CCCN1C(=O)[C@H](Cc1ccccc1)NC(=O)[C@@H](NC(=O)[C@H](CCC(=O)O)NC(=O)[C@H](CO)NC(=O)CNC(=O)[C@H](CC(C)C)NC(=O)[C@@H]1CCCN1C(=O)CN)[C@@H](C)O)[C@@H](C)CC)[C@@H](C)O)C(=O)N[C@@H](CCC(=O)O)C(=O)N[C@@H](CO)C(=O)N[C@@H](CC(C)C)C(=O)N[C@@H](CO)C(=O)N[C@@H](CO)C(=O)N[C@@H](CCC(=O)O)C(=O)N[C@@H](CC(C)C)C(=O)N[C@@H](CC(C)C)C(=O)N[C@H](C(=O)N[C@@H](Cc1ccccc1)C(=O)NCC(=O)N[C@@H](CC(=O)O)C(=O)N[C@@H](Cc1ccccc1)C(=O)N[C@@H](CC(C)C)C(=O)N1CCC[C@H]1C(=O)NCC(=O)N[C@@H](CCC(=O)O)C(=O)N[C@H](C(=O)N[C@@H](CC(=O)O)C(=O)N[C@@H](CC(=O)O)C(=O)N[C@@H](CC(C)C)C(=O)N[C@H](C(=O)N[C@@H](CC(=O)O)C(=O)N[C@@H](CO)C(=O)N[C@@H](CC(=O)O)C(=O)N[C@@H](Cc1c[nH]c2ccccc12)C(=O)N[C@@H](CO)C(=O)N[C@H](C(=O)N[C@@H](Cc1c[nH]cn1)C(=O)N[C@@H](Cc1c[nH]cn1)C(=O)N[C@@H](Cc1c[nH]cn1)C(=O)N[C@@H](Cc1c[nH]cn1)C(=O)N[C@@H](Cc1c[nH]cn1)C(=O)N[C@@H](Cc1c[nH]cn1)C(=O)O)[C@@H](C)O)[C@@H](C)O)C(C)C)[C@@H](C)O [CHIKV-43],"M.W., molecular weight of the peptide–NTF2L complex",[1],314.1 ± 0.28 kDa
same,approximate M.W. of the peptide–NTF2L complex,[1]; rounded value of text,approximately 310 kDa
same,SEC peak / high-order oligomer formation with NTF2L,[3],formed a stable peak
same,interaction with endogenous G3BP1,[4],obviously interact with G3BP1
same,"n, molar ratio","[2]; HEPES buffer pH 7.5, 50 µM peptide injected into 10 µM NTF2L",0.6 ± 0.002
O=C(O[C@@H]1Cc2c(O)cc(O)cc2O[C@@H]1c1cc(O)c(O)c(O)c1)c1cc(O)c(O)c(O)c1 [Epigallocatechin gallate],effect on lung cancer cell growth,[5],inhibits lung cancer cell growth
Cc1ccc(NC(=O)c2ccc(CN3CCN(C)CC3)cc2)cc1Nc1nccc(-c2cccnc2)n1 [imatinib],inhibition of SARS-CoV-2 propagation,[6],inhibit SARS-CoV-2 propagation
Nc1ncn([C@H]2C[C@H](O)[C@@H](CO)O2)c(=O)n1 [decitabine],inhibition of SARS-CoV-2 propagation,[6],inhibit SARS-CoV-2 propagation
